Columns and labels:
[1] = test system: 5 microorganisms (3 bacteria and 2 fungi); assay: USP 51 Preservative Challenge Test, overall assessment by USP Criteria for Category 2; assay type: cell-based; conditions: 14 and 28 days
Description: (§1) In order to assess the anti-microbial properties of ALPHA-1062, the USP (US Pharmacopeia) Chapter 51 Preservative Challenge Test (USP 51) was employed. The USP 51 is a common method used to gauge preservative effectiveness. Much like a Preservative Challenge Screen, it is used to evaluate the effect of preservatives in cosmetics, personal care products, and drug products. Preservatives are typically antimicrobial ingredients that are added to aqueous product formulations to help maintain the safety of the product by inhibiting the growth and reducing the number of microbial contaminants.
In the context of the present invention, ALPHA-1062 (in the form of the gluconate salt) was assessed in place of (as) a preservative. No additional preservative was added to the ALPHA-1062 gluconate preparation, rather an anti-microbial effect of the agent itself (ALPHA-1062) was assessed. ALPHA-1062 is therefore the anti-microbial agent in the assay and experiments described below. […]
The inoculated containers were incubated at 22.5±2.5° C. and each container was sampled at the appropriate intervals, as specified in Table 3. Any changes observed in the appearance of the culture was recorded at these intervals. By using the plate-count procedure, the number of CFU present in each test preparation was determined for the applicable intervals. […]

[2] = test system: Escherichia coli (ATCC No. 8739); assay: USP 51 Preservative Challenge Test; assay type: cell-based; conditions: E. coli ATCC 8739
Description: as §1
(§2) In the context of the present invention, ALPHA-1062 (in the form of the gluconate salt) was assessed in place of (as) a preservative. No additional preservative was added to the ALPHA-1062 gluconate preparation, rather an anti-microbial effect of the agent itself (ALPHA-1062) was assessed. ALPHA-1062 is therefore the anti-microbial agent in the assay and experiments described below.
(§3) The USP 51 challenge test utilizes 5 microorganisms (3 bacteria and 2 fungi) for challenge testing. Each of the microorganisms are known strains of pathogenic microorganisms and they represent a wide range of microbial physiologies.
(§4) Cultures of the following microorganisms were applied, as per standard guidelines for USP 51: Candida albicans (ATCC No. 10231), Aspergillus brasiliensis (ATCC No. 16404), Escherichia coli (ATCC No. 8739), Pseudomonas aeruginosa (ATCC No. 9027), and Staphylococcus aureus (ATCC No. 6538).
(§5) The test was conducted in five sterile, capped bacteriological containers of suitable size into which a sufficient volume of product has been transferred. Each container was inoculated with one of the prepared and standardized inoculums and was mixed accordingly. The volume of the suspension inoculum used was between 0.5% and 1.0% of the volume of the product. The concentration of test microorganisms that was added to the product was such that the final concentration of the test preparation after inoculation was between 1×10^5 and 1×10^6 CFU per mL of the product, according to standard guidelines for Category 2 products.
(§6) The initial concentration of viable microorganisms in each test preparation was estimated based on the concentration of microorganisms in each of the standardized inoculums, as determined by the plate-count method.
(§7) The inoculated containers were incubated at 22.5±2.5° C. and each container was sampled at the appropriate intervals, as specified in Table 3. Any changes observed in the appearance of the culture was recorded at these intervals. By using the plate-count procedure, the number of CFU present in each test preparation was determined for the applicable intervals.
(§8) An inactivator (neutralizer) of the specific antimicrobial was incorporated in the plate count or in the appropriate dilution prepared for plating. These conditions were determined in the validation study for that sample based upon the conditions of media and microbial recovery incubation times listed in Table 2. Using the calculated concentrations of CFU per mL present at the start of the test, the change in log 10 values of the concentration of CFU per mL for each microorganism was calculated at the applicable test intervals, and the changes were expressed in terms of log reductions.
(§9) The USP Criteria for Category 2 were employed in order to determine the presence of an anti-microbial effect. For bacteria, an antimicrobial effect is evident when at least a 2.0 log reduction from the initial count is evident at 14 days and no increase is evident from the 14-day count at 28 days. For yeast and molds, an antimicrobial effect is evident when no increase from the initial calculated count is determined at 14 and 28 days.

[3] = test system: Aspergillus brasiliensis (ATCC No. 16404); assay: USP 51 Preservative Challenge Test; assay type: cell-based; conditions: A. brasiliensis ATCC 16404; initial Log10 5.3
Description: as §1, §2, §3, §4, §5, §6, §7, §8, §9

[4] = test system: Staphylococcus aureus (ATCC No. 6538); assay: USP 51 Preservative Challenge Test; assay type: cell-based; conditions: S. aureus ATCC 6538
Description: as §1, §2, §3, §4, §5, §6, §7, §8, §9

[5] = test system: Candida albicans (ATCC No. 10231); assay: USP 51 Preservative Challenge Test; assay type: cell-based; conditions: C. albicans ATCC 10231
Description: as §1, §2, §3, §4, §5, §6, §7, §8, §9

[6] = test system: Pseudomonas aeruginosa (ATCC No. 9027); assay: USP 51 Preservative Challenge Test; assay type: cell-based; conditions: P. aeruginosa ATCC 9027
Description: as §1, §2, §3, §4, §5, §6, §7, §8, §9

[7] = 43% RH (RT), up to 5 days; cited from earlier work
[8] = initial 9.1 × 10^5 CFU/mL (Log10 6.0), 22.5±2.5° C., no additional preservative
[9] = initial 4.0 × 10^5 CFU/mL (Log10 5.6), 22.5±2.5° C., no additional preservative
[10] = initial 6.7 × 10^5 CFU/mL (Log10 5.8), 22.5±2.5° C., no additional preservative
[11] = initial 2.9 × 10^5 CFU/mL (Log10 5.5), 22.5±2.5° C., no additional preservative

| Structure (SMILES) | anti-microbial effect against all 5 organisms tested in the USP 51 [1] | Day 14 CFU/mL [2, 8] [CFU/mL] | Day 28 CFU/mL [2, 8] [CFU/mL] | Day 14 Log Reduction ([2]; initial Log10 6.0) | Day 28 Log Reduction ([2]; initial Log10 6.0) | Day 14 Log Reduction [3] | Day 28 Log Reduction [3] | Day 14 CFU/mL [4, 9] [CFU/mL] | Day 28 CFU/mL [4, 9] [CFU/mL] | Day 14 Log Reduction ([4]; initial Log10 5.6) | Day 28 Log Reduction ([4]; initial Log10 5.6) | Day 14 CFU/mL [5, 10] [CFU/mL] | Day 28 CFU/mL [5, 10] [CFU/mL] | Day 14 Log Reduction ([5]; initial Log10 5.8) | Day 28 Log Reduction ([5]; initial Log10 5.8) | Day 14 CFU/mL [6, 11] [CFU/mL] | Day 28 CFU/mL [6, 11] [CFU/mL] | Day 14 Log Reduction ([6]; initial Log10 5.5) | Day 28 Log Reduction ([6]; initial Log10 5.5) | solid state stability of the crystalline form [7] |
| --- | --- | --- | --- | --- | --- | --- | --- | --- | --- | --- | --- | --- | --- | --- | --- | --- | --- | --- | --- | --- |
| COc1ccc2c3c1O[C@H]1C[C@@H](OC(=O)c4ccccc4)C=C[C@@]31CCN(C)C2 [ALPHA-1062 Gluconate] | strong anti-microbial effect | <10 | <10 | 5.0 | 5.0 | 3.1 | 3.1 | <10 | <10 | 4.6 | 4.6 | <10 | <10 | 4.8 | 4.8 | <10 | <10 | 4.5 | 4.5 | – |
| COc1ccc2c3c1O[C@H]1C[C@@H](OC(=O)c4ccccc4)C=C[C@@]31CCN(C)C2.O=C(O)C(O)C(O)C(O)C(O)CO [Form A] | – | – | – | – | – | – | – | – | – | – | – | – | – | – | – | – | – | – | – | kinetically stable |

Source: patent publication US12589099B2 (priority 2021, dated 2026)
